In data set [1] the test system is AChE. The following applies: relative to (±)-huperzine A; U.S. Pat. No. 4,929,731; cited from earlier work.
Another data set deals with myasthenia gravis. The following applies: 128 patients suffering from myasthenia gravis; Y. S. Cheng, 1986; cited from earlier work.
The next data set has as its system mice. The following applies: G. P. Vincent et al., 1987; cited from earlier work.
The subject of a further data set is squirrel monkeys. The following applies: G. P. Vincent et al., 1987; cited from earlier work.
In the next data set the target is T1, FBS AChE (Bos taurus, UniProt P23795).
T1 construct: FBS AChE; from tissue; host or cells: fetal bovine serum (FBS read as this abbreviation)
T1 sequence (P23795 31-613): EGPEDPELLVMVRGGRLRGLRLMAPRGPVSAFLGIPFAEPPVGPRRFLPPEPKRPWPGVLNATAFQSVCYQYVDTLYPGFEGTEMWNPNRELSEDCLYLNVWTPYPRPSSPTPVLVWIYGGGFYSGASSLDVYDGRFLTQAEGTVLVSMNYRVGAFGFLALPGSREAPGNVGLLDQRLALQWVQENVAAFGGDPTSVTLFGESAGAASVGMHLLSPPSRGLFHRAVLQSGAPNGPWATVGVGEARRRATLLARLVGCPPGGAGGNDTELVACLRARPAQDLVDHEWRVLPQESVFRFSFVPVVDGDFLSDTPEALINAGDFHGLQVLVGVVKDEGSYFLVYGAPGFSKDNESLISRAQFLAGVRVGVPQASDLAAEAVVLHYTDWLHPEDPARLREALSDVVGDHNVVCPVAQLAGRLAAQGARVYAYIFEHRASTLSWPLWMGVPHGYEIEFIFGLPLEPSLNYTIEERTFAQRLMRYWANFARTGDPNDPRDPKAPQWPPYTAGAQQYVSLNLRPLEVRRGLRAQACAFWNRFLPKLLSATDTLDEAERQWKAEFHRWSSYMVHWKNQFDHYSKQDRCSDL
The data set is described as follows: Inhibition of AChE (dissociation constant Ki, procedure of Y. Ashani et al.). It is filed as biochemical.

Data set [2] deals with acetylcholinesterase (ACHE). Conditions: cited from earlier work.
The next data set relates to Alzheimer's disease. Conditions: K. L. Davis, NIA meeting, Jan. 8-10, 1990; cited from earlier work.
The subject of data set [3] is AChE. The following applies: 0.65 mg/kg i.m., cited from earlier work.
The mark [4] stands for this setting: procedure of Y. Ashani et al., Molecular Pharmacol., 45, 555 (1994), read-out: FBS AChE Ki, dissociation constant for inhibition of AChE.

Structures are written as SMILES. Where two headings read alike, the source gives them in different places.

From the text for FBS AChE: *Dissociation constant (Ki) for inhibition of AChE determined

Take `CC=C1C2C=C(C)CC1(CN)c1ccc(=O)[nH]c1C2` (stereo not shown): the “times less potent than (±)-huperzine A as an inhibitor of AChE” value with AChE [1] is reported as “about 166 times”. Take `CC=C1C2C=C(C)CC1(N)c1ccc(=O)[nH]c1C2` (single isomer, unassigned) [huperzine A]: the “cases in which clinical manifestations of myasthenia gravis are controlled” value with myasthenia gravis is listed as 99%. For the same compound, the “cognition enhancement in mice” value in the data set on mice was “effective cognition enhancer”. In addition, the “cognition enhancement in squirrel monkeys” value in the data set on squirrel monkeys is given as “effective cognition enhancer”. `C=CCC1c2[nH]c(=O)ccc2C2(N)CC(C)=CC1/C2=C\C` (stereo not shown) [Compound 8a, (11E)-10-Allyl-5-amino-11-ethylidene-5,6,9,10-tetrahydro-7-methyl-5,9-methanocycloocta[b]pyridin-5(1H)-one]: on FBS AChE (setting [4]), the Ki (in general, a measure of affinity in units of concentration, obtained from inhibition or displacement) came to 275 µM.

Turning to `C/C=C1\C2C=C(C)CC1(N)c1ccc(=O)[nH]c1C2C` (stereo not shown) [Compound 8b, (11E)-5-Amino-11-ethylidene-5,6,9,10-tetrahydro-7,10-dimethyl-5,9-methanocycloocta[b]pyridin-2(1H)-one], at FBS AChE (setting [4]), the Ki is 0.008 ± 0.002 µM. `C/C=C1\C2C=C(C)CC1(N)c1ccc(=O)[nH]c1C2CC` (stereo not shown) [Compound 8c, (11E)-5-Amino-10-ethyl-11-ethylidene-5,6,9,10-tetrahydro-7-methyl-5,9-methanocycloocta[b]pyridin-2(1H)-one] registered a Ki on FBS AChE of 2.04 µM. Take `C/C=C1\C2C=C(C)CC1(N)c1ccc(=O)[nH]c1C2CCC` (stereo not shown) [Compound 8d, (11E)-5-Amino-11-ethylidene-5,6,9,10-tetrahydro-7-methyl-10-propyl-5,9-methanocycloocta[b]pyridin-2(1H)-one]: at FBS AChE (setting [4]), the inhibitory constant (Ki) was determined as 207 µM.

`C/C=C1\C2C=C(C)CC1(N)c1ccc(=O)[nH]c1C2CCCC` (stereo not shown) [Compound 8e, (11E)-5-Amino-10-butyl-11-ethylidene-5,6,9,10-tetrahydro-7-methyl-5,9-methanocycloocta[b]pyridin-2(1H)-one]: the Ki on FBS AChE (setting [4]) amounted to 192 µM.

As to `CC1=CC2Cc3[nH]c(=O)ccc3C3(C1)NCCCC23` (stereo not shown) [huperzine B], the “usefulness as ACHE inhibitors relative to THA and physostigmine” value in data set [2] is “appear superior to THA and physostigmine”. `CNC(=O)Oc1ccc2c(c1)[C@]1(C)CCN(C)[C@@H]1N2C` [physostigmine]: the cognitive improvement entry in the data set on Alzheimer's disease is on record as “modest cognitive improvement”. Also, the “maximal duration of AChE inhibitory action” value in the data set on AChE [3] (X. C. Tang et al., 1989) is at most 60 min. Moreover, in the data set on AChE [3], the side effects result is “considerable side effects”.

(Values after US5547960A (Mayo Foundation for Medical Education and Research, priority 1994, dated 1996).)
